What all share (type): in vivo
For assay [1], the system named is Erysiphe graminis f. sp. tritici. The assay can be described thus: Test A: wheat powdery mildew, preventive spray on wheat seedlings. As to conditions: 200 ppm, 100 = 100% disease control, 0 = no control relative to controls; for pest or weed control at 200 ppm: Blumeria graminis, 192 h, read-out: Test A disease control rating. The method, boiled down: (§1)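 Each test compound, pre-dissolved in acetone, was suspended in aqueous acetone containing surfactant and sprayed onto the plants to the point of run-off at 200 or 40 ppm.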

Assay [2] relates to Puccinia recondita f. sp. tritici. Nature of the assay: Test B: wheat leaf rust, preventive spray on wheat seedlings. The following applies: 200 ppm, 100 = 100% disease control, 0 = no control relative to controls; for pest or weed control at 200 ppm: Puccinia recondita, 192 h, read-out: Test B disease control rating. The method, boiled down:
as §1

In a further assay the test system is Septoria nodorum. Nature of the assay: Test C: wheat glume blotch, preventive spray on wheat seedlings. The following applies: 200 ppm, 100 = 100% disease control, 0 = no control relative to controls; for pest or weed control at 200 ppm: Parastagonospora nodorum, 216 h, read-out: Test C disease control rating. An outline of the steps: as §1
The test system of a further assay is Septoria tritici. The assay can be described thus: Test D: wheat leaf blotch, preventive spray on wheat seedlings. As to conditions: 200 ppm, 100 = 100% disease control, 0 = no control relative to controls; for pest or weed control at 200 ppm: Zymoseptoria tritici, 504 h, read-out: Test D disease control rating. The method, boiled down:
as §1

A further assay deals with Fusarium graminearum. Nature of the assay: whole plant or invertebrate. The following applies: for Test E disease control rating: 200 ppm, 100 = 100% disease control, 0 = no control relative to controls; for pest or weed control at 200 ppm: Fusarium graminearum, in Triticum aestivum, 192 h, read-out: Test E disease control rating.
The subject of a further assay is Botrytis cinerea. The assay can be described thus: Test F: tomato Botrytis, preventive spray on tomato seedlings. The following applies: 200 ppm, 100 = 100% disease control, 0 = no control relative to controls; for pest or weed control at 200 ppm: Botrytis cinerea, 120 h, read-out: Test F disease control rating. The method, boiled down:
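Preventive run-off spray onto tomato seedlings at 200 ppm (equivalent to 500 g/ha) or 40 ppm. Suspensions: compound predissolved in acetone at 3% of final volume, then taken up in acetone/purified water 50/50 containing 250 ppm Trem® 014 surfactant.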

The subject of assay [3] is Colletotrichum orbiculare. Nature of the assay: Test I: cucumber Colletotrichum anthracnose, preventive spray on cucumber seedlings. As to conditions: 100 = 100% disease control, 0 = no control relative to controls; for Test I disease control rating: 200 ppm; for pest or weed control at 200 ppm: Colletotrichum orbiculare, 144 h, read-out: Test I disease control rating. An outline of the steps:
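Preventive foliar spray to run-off on cucumber seedlings, at 200 ppm (stated as equal to 500 g/ha) or 40 ppm. Test suspensions were made in acetone/water 50/50 containing 250 ppm Trem 014, after first dissolving compound in acetone at 3% of final volume.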

For the next assay, the system named is Rhizoctonia oryzae. Nature of the assay: Test J: turf brown patch, preventive spray on creeping bent grass seedlings. The following applies: 200 ppm; 100 = 100% disease control, 0 = no control relative to controls. The text has this: (§2) General protocol for preparing test suspensions for Tests A-R: The test compounds were first dissolved in acetone in an amount equal to 3% of the final volume and then suspended at the desired concentration (in ppm) in acetone and purified water (50/50 mix) containing 250 ppm of the surfactant Trem® 014 (polyhydric alcohol esters). The resulting test suspensions were then used in tests A-R. In Tests A-M, compounds were sprayed as a 200 ppm test suspension (equivalent to a rate of 500 g/ha) or as a 40 ppm test suspension to the point of runoff on the test plants. In Tests N-R, compounds were sprayed as a 100 g/ha test suspension (equivalent to a rate of 100 ppm) on the test plants at an application volume of 1000 L/ha. The test suspension was sprayed to the point of run-off on creeping bent grass seedlings.

A further assay concerns Phytophthora infestans. The following applies: 200 ppm; 100 = 100% disease control, 0 = no control relative to controls.
In the next assay the test system is Plasmopara viticola. Nature of the assay: Test L: grape downy mildew, spray after inoculation of grape seedlings. As to conditions: 200 ppm; 100 = 100% disease control, 0 = no control relative to controls.
Text: as §2, with “L/ha. Grape seedlings were inoculated with a spore suspension of Plasmopara viticola (the causal agent of grape downy mildew) and incubated in a saturated atmosphere at 20° C. for 24 h. After a short drying period, the” for “L/ha. The”, “on the grape seedlings and then moved to a growth chamber at 20° C. for 6 days, after which time the test units were placed back into a saturated atmosphere at 20° C. for 24 h. Upon removal, disease ratings were made.” for “on creeping bent grass seedlings.”

The next assay relates to Pythium aphanidermatum. Nature of the assay: Test M: bluegrass pythium blight, preventive spray on bluegrass seedlings. As to conditions: 200 ppm; 100 = 100% disease control, 0 = no control relative to controls.
Text: as §2, with “bluegrass” for “creeping bent grass”

Regarding `COCC(C)Nc1nccc(-c2ccnc(Nc3cccc(C#N)c3)c2)n1` (stereo not drawn) [Compound 42], in [1], the “Test A disease control rating” value is given as 0%. Further, the “Test B disease control rating” value in assay [2] is on record as 88%. Further, in the assay with Septoria nodorum, the “Test C disease control rating” value is recorded as 94%. For the same compound, the “Test D disease control rating” value in the assay with Septoria tritici came out at 9%. For the same compound, the “Test E disease control rating” value with Fusarium graminearum worked out at 0%. In addition, in the assay on Botrytis cinerea, the “Test F disease control rating” value amounted to 75%. Besides, the “Test I disease control rating” value in assay [3] stood at 92%. Besides, the “Test J disease control rating” value in the assay with Rhizoctonia oryzae was determined as 0%. Besides, in the assay on Phytophthora infestans, the “Test K disease control rating” value stood at 0%. In addition, in the assay with Plasmopara viticola, the “Test L disease control rating” value is listed as 16%. Moreover, the “Test M disease control rating” value with Pythium aphanidermatum worked out at 0%.
As to `CC(CO)Nc1nccc(-c2ccnc(Nc3cccc(F)c3)c2)n1` (stereo not drawn) [Compound 48], the “Test A disease control rating” value in [1] amounted to 0%. Moreover, the “Test B disease control rating” value in assay [2] is reported as 99%. In addition, in the assay with Septoria nodorum, the “Test C disease control rating” value is 87%. The “Test E disease control rating” value in the assay on Fusarium graminearum is 0%. Also, the “Test F disease control rating” value with Botrytis cinerea worked out at 15%. Moreover, the “Test I disease control rating” value in assay [3] came to 26%. In addition, the “Test J disease control rating” value with Rhizoctonia oryzae came out at 0%. The “Test K disease control rating” value in the assay with Phytophthora infestans turned out to be 0%. The “Test L disease control rating” value in the assay with Plasmopara viticola turned out to be 0%. Also, the “Test M disease control rating” value in the assay on Pythium aphanidermatum is recorded as 0%.
Regarding `COCC(C)Nc1nccc(-c2ccnc(Nc3c(F)cccc3F)c2)n1` (stereo not drawn) [Compound 49], in assay [1], the “Test A disease control rating” value turned out to be 86%. Moreover, in assay [2], the “Test B disease control rating” value is reported as 99%. Also, the “Test C disease control rating” value in the assay with Septoria nodorum is on record as 92%. Further, the “Test E disease control rating” value in the assay on Fusarium graminearum is reported as 81%. The “Test F disease control rating” value with Botrytis cinerea came out at 90%. In addition, the “Test I disease control rating” value in assay [3] is 67%. Moreover, the “Test J disease control rating” value in the assay on Rhizoctonia oryzae was 0%. In the assay on Phytophthora infestans, the “Test K disease control rating” value stood at 0%. For the same compound, in the assay on Plasmopara viticola, the “Test L disease control rating” value is 0%. Moreover, in the assay on Pythium aphanidermatum, the “Test M disease control rating” value is given as 0%.
As for `COCC(C)Nc1nccc(-c2ccnc(Nc3ccc(F)cc3)c2)n1` (stereo not drawn) [Compound 50], the “Test A disease control rating” value in assay [1] worked out at 0%. Besides, the “Test B disease control rating” value in [2] came to 99%. In addition, the “Test C disease control rating” value in the assay on Septoria nodorum stood at 84%. The “Test E disease control rating” value in the assay on Fusarium graminearum stood at 72%. The “Test F disease control rating” value with Botrytis cinerea was found to be 94%. Moreover, the “Test I disease control rating” value in assay [3] is given as 96%. For the same compound, the “Test J disease control rating” value in the assay with Rhizoctonia oryzae is 0%. Moreover, the “Test K disease control rating” value in the assay on Phytophthora infestans is listed as 0%. Also, the “Test L disease control rating” value in the assay on Plasmopara viticola was determined as 0%. Also, the “Test M disease control rating” value with Pythium aphanidermatum is 0%.
For the compound `COCC(C)Nc1nccc(-c2ccnc(Nc3cccc(C)c3)c2)n1` (stereo not drawn) [Compound 51], in assay [1], the “Test A disease control rating” value was 88%. For the same compound, the “Test B disease control rating” value in assay [2] is recorded as 99%. In addition, the “Test C disease control rating” value in the assay with Septoria nodorum is 98%. In the assay with Fusarium graminearum, the “Test E disease control rating” value came out at 48%. Moreover, the “Test F disease control rating” value in the assay on Botrytis cinerea is 99%. In assay [3], the “Test I disease control rating” value was 92%. Also, in the assay with Rhizoctonia oryzae, the “Test J disease control rating” value was determined as 0%. Also, the “Test K disease control rating” value in the assay on Phytophthora infestans stood at 0%. Also, in the assay on Plasmopara viticola, the “Test L disease control rating” value came out at 0%. In addition, in the assay with Pythium aphanidermatum, the “Test M disease control rating” value is 0%.
For the compound `COCC(C)Nc1cc(-c2ccnc(Nc3cccc(Cl)c3)n2)ncn1` (stereo not drawn) [Compound 105, N^2-(3-chlorophenyl)-N^6′-(2-methoxy-1-methylethyl) [4,4′-bipyrimidine]-2,6′-diamine], the pest or weed control at 200 ppm in assay [1] worked out at 0%; in [2], 97%; in the assay with Septoria nodorum, 92%; in the assay on Fusarium graminearum, 73%; with Botrytis cinerea, 78%; in assay [3] it was 0%. Further, the “Test J disease control rating” value with Rhizoctonia oryzae turned out to be 0%. Also, the “Test K disease control rating” value in the assay on Phytophthora infestans is listed as 0%. In the assay on Plasmopara viticola, the “Test L disease control rating” value was determined as 0%. The “Test M disease control rating” value in the assay with Pythium aphanidermatum is 0%.
Regarding `COCC(C)Nc1cc(-c2ccnc(Nc3cccc(F)c3)n2)ncn1` (stereo not drawn) [Compound 106, N^2-(3-fluorophenyl)-N^6′-(2-methoxy-1-methylethyl) [4,4′-bipyrimidine]-2,6′-diamine], the pest or weed control at 200 ppm was determined as 24% in assay [1]; 94% in assay [2]; 99% in the assay with Septoria nodorum; 17% in the assay on Septoria tritici; 32% in the assay with Fusarium graminearum; 85% with Botrytis cinerea. In assay [3], the pest or weed control at 200 ppm was 37%. Besides, the “Test J disease control rating” value in the assay on Rhizoctonia oryzae was found to be 0%. The “Test K disease control rating” value in the assay on Phytophthora infestans was 0%. Also, the “Test L disease control rating” value in the assay on Plasmopara viticola is listed as 0%. For the same compound, the “Test M disease control rating” value with Pythium aphanidermatum stood at 0%.
Turning to `COCC(C)Nc1cc(-c2ccnc(Nc3cccc([N+](=O)[O-])c3)n2)ncn1` (stereo not drawn) [Compound 107, N^6′-(2-methoxy-1-methylethyl)-N^2-(3-nitrophenyl) [4,4′-bipyrimidine]-2,6′-diamine], the pest or weed control at 200 ppm came out at 0% in assay [1]; 94% in assay [2]; 100% in the assay on Septoria nodorum; 8% in the assay with Septoria tritici; 89% in the assay with Fusarium graminearum; 28% in the assay with Botrytis cinerea. Also, the pest or weed control at 200 ppm in [3] was 72%. In the assay on Rhizoctonia oryzae, the “Test J disease control rating” value turned out to be 0%. Further, the “Test K disease control rating” value with Phytophthora infestans was determined as 0%. Besides, in the assay on Plasmopara viticola, the “Test L disease control rating” value came to 0%. For the same compound, the “Test M disease control rating” value in the assay on Pythium aphanidermatum is recorded as 0%.
For the compound `COCC(C)Nc1cc(-c2ccnc(Nc3ccccc3)n2)ncn1` (stereo not drawn) [Compound 108], the “Test A disease control rating” value in assay [1] is 0%. Further, in assay [2], the “Test B disease control rating” value stood at 80%. Further, the “Test C disease control rating” value in the assay on Septoria nodorum is listed as 0%. In the assay with Fusarium graminearum, the “Test E disease control rating” value was found to be 98%. Also, the “Test F disease control rating” value in the assay on Botrytis cinerea is listed as 38%. Besides, the “Test I disease control rating” value in assay [3] was found to be 0%. In addition, the “Test J disease control rating” value in the assay with Rhizoctonia oryzae is reported as 0%. Moreover, the “Test K disease control rating” value with Phytophthora infestans stood at 0%. Moreover, the “Test L disease control rating” value with Plasmopara viticola amounted to 0%. For the same compound, the “Test M disease control rating” value with Pythium aphanidermatum turned out to be 0%.

Source of the values: US8026359B2, “Fungicidal heterocyclic amines” (E.I. du Pont de Nemours and Company, priority 2007, dated 2011).
